# Data published in patent publication US20230372327A1, “PHARMACEUTICAL COMPOSITION BASED ON […]/OR ITS SALTS FOR NASAL ADMINISTRATION” (Pharmbiotest Poland Sp. z o. o., priority 2020, published 2023).
# Where a name gives a salt, the structure may show the parent alone. Read-outs that look alike come from different tables or passages of the source.
# Experiments:
# [1] = 12 volunteers
# From the text: The total number of healthy adult male subjects enrolled was twelve. Throughout the study, the conditions of their hospital stay, a dietary pattern, a water consumption regimen, a physical activity regimen for the volunteers were standardized. The clinical step of study consisted of a screening, two study periods, a washout period, and the final examination. The total duration of study, starting from the screening through the completion of study, was approximately three weeks with a seven-day wash-out period between medication administrations. Each study period was preceded by inpatient hospitalization in the evening of the previous day. The medications were dosed on Day 1 of each study period starting from 08:00 a.m. The subjects stayed in the centre for 24 hours after the administration of the medication under study in each study period. In each study period the following was done: the intake of the medications under study whose prescription was determined by a simple randomization method; blood sampling for the determination of active pharmaceutical ingredient concentration; the measurement of vital data such as blood pressure (BP), heart rate; and questionnaire survey of volunteers. […]
# [2] = printed: following nasal use (administration); prior-art compositions, strong first-pass effect; cited from earlier work
# [3] = clinical; conditions: male, human, plasma, other: intranasal (nasal spray), 10 mg
# From the text: The total number of healthy adult male subjects enrolled was twelve. Throughout the study, the conditions of their hospital stay, a dietary pattern, a water consumption regimen, a physical activity regimen for the volunteers were standardized. The clinical step of study consisted of a screening, two study periods, a washout period, and the final examination. The total duration of study, starting from the screening through the completion of study, was approximately three weeks with a seven-day wash-out period between medication administrations. Each study period was preceded by inpatient hospitalization in the evening of the previous day. […] In each study period the following was done: the intake of the medications under study whose prescription was determined by a simple randomization method; blood sampling for the determination of active pharmaceutical ingredient concentration; the measurement of vital data such as blood pressure (BP), heart rate; and questionnaire survey of volunteers.
# Blood was sampled as follows: 0 hours, 15 min., 30 min., 45 min., 1 hour, 1 hour 30 min., 2 hours, 2 hours 30 min., 3 hours, 4 hours, 6 hours, 8 hours, 12 hours, and 24 hours post-dosing. […] The actual sampling time was recorded. […]
# AUC(0-∞) is AUC0-t plus the extrapolated AUC from time t to infinity [ng×h/mL]. The extrapolation is calculated from the last measured concentration (Ct): AUC(0-∞)=AUC(0-t)+Ct/Kel. […]
smiles,measurement,setting,value
"Oc1ccc2c3c1O[C@H]1[C@@H](O)CC[C@@]4(O)[C@@H](C2)N(CC2CCC2)CC[C@]314 [nalbuphine, (5α.6α)-17-(cyclobutylmethyl)-4.5epoxy-morphinan-3.6.14-triol hydrochloride]",adverse reactions recorded,[1]; after intramuscular administration of 10 mg of nalbuphine,24 cases
same,adverse reactions recorded,[1]; after intravenous administration of 10 mg of nalbuphine,25 cases
same,bioavailability of nalbuphine,[2],16.4 to 17.7%
same,bioavailability,[3],50%
